Consider 31 compounds from ChEMBL document CHEMBL4334508, “Oleanolic Acid Derivatives as Potential Inhibitors of HIV-1 Protease” (J Nat Prod, 2019).

Structures are written as SMILES. A value given as a limit tells only on which side of the number the result lay.

Protease, sequence (Q9YQ12 whole entry): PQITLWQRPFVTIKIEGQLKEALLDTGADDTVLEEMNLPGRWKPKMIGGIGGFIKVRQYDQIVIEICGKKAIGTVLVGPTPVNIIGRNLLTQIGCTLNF

This experiment addresses Protease (Human immunodeficiency virus 1, UniProt Q9YQ12). Briefly: Inhibition of HIV1 protease expressed in Escherichia coli using Abz-Ala-Arg-Val-Nle-Tyr(NO2)-Glu-Ala-Nle-NH2 peptide as substrate by FRET assay.
A word on the IC50: it is the concentration that inhibits the measured activity by half. Higher therefore signals a need for much substance. `CC(C)[C@H](NC(=O)CCCCCNC(=O)[C@]12CCC(C)(C)C[C@H]1C1=CC[C@@H]3[C@@]4(C)CC[C@H](OC(=O)c5ccccc5)C(C)(C)[C@@H]4CC[C@@]3(C)[C@]1(C)CC2)C(=O)O` gave an IC50 greater than 50 µM. To `CCCC(=O)O[C@H]1CC[C@]2(C)[C@H]3CC=C4[C@@H]5CC(C)(C)CC[C@]5(C(=O)NCCCCCCCCCCC(=O)N[C@H](C(=O)O)C(C)C)CC[C@@]4(C)[C@]3(C)CC[C@H]2C1(C)C` belongs greater than 50 µM; to `CCCCCC(=O)O[C@H]1CC[C@]2(C)[C@H]3CC=C4[C@@H]5CC(C)(C)CC[C@]5(C(=O)NCCCC(=O)NCC(=O)O)CC[C@@]4(C)[C@]3(C)CC[C@H]2C1(C)C`, greater than 50 µM. To `CC(=O)O[C@H]1CC[C@]2(C)[C@H]3CC=C4[C@@H]5CC(C)(C)CC[C@]5(C(=O)NCCCC(=O)O)CC[C@@]4(C)[C@]3(C)CC[C@H]2C1(C)C` belongs 32.6 µM; to `CC1(C)CC[C@]2(C(=O)NCCCC(=O)NCC(=O)O)CC[C@]3(C)C(=CC[C@@H]4[C@@]5(C)CC[C@H](OC(=O)CCC(=O)O)C(C)(C)[C@@H]5CC[C@]43C)[C@@H]2C1`, greater than 50 µM; to `CCCCCC(=O)O[C@H]1CC[C@]2(C)[C@H]3CC=C4[C@@H]5CC(C)(C)CC[C@]5(C(=O)NCCCC(=O)N[C@@H](C)C(=O)O)CC[C@@]4(C)[C@]3(C)CC[C@H]2C1(C)C`, greater than 50 µM. With `CCCCCCCCCCCC(=O)O[C@H]1CC[C@]2(C)[C@H]3CC=C4[C@@H]5CC(C)(C)CC[C@]5(C(=O)NCCCC(=O)O)CC[C@@]4(C)[C@]3(C)CC[C@H]2C1(C)C`, the 50% inhibitory concentration (IC50) is greater than 50 µM.

In turn, `CCCC(=O)O[C@H]1CC[C@]2(C)[C@H]3CC=C4[C@@H]5CC(C)(C)CC[C@]5(C(=O)NCCCCCC(=O)N[C@@H](C)C(=O)O)CC[C@@]4(C)[C@]3(C)CC[C@H]2C1(C)C` gave a half-maximal inhibitory concentration (IC50) of 40 µM. To `CC(C)(CC(=O)O)CC(=O)O[C@H]1CC[C@]2(C)[C@H]3CC=C4[C@@H]5CC(C)(C)CC[C@]5(C(=O)NCCCC(=O)NCC(=O)O)CC[C@@]4(C)[C@]3(C)CC[C@H]2C1(C)C` belongs greater than 50 µM; to `CC1(C)CC[C@]2(C(=O)NCCCC(=O)NCC(=O)O)CC[C@]3(C)C(=CC[C@@H]4[C@@]5(C)CC[C@H](OC(=O)c6ccccc6)C(C)(C)[C@@H]5CC[C@]43C)[C@@H]2C1`, greater than 50 µM; to `CC1(C)CC[C@]2(C(=O)NCCCCCCCCCCC(=O)NCC(=O)O)CC[C@]3(C)C(=CC[C@@H]4[C@@]5(C)CC[C@H](OC(=O)c6ccccc6)C(C)(C)[C@@H]5CC[C@]43C)[C@@H]2C1`, greater than 50 µM.

As for `CC1(C)CC[C@]2(C(=O)NCCCCCCCCCCC(=O)O)CC[C@]3(C)C(=CC[C@@H]4[C@@]5(C)CC[C@H](OC(=O)CCC(=O)O)C(C)(C)[C@@H]5CC[C@]43C)[C@@H]2C1`, the half-maximal inhibitory concentration (IC50) is greater than 50 µM. For `CC1(C)CC[C@]2(C(=O)NCCCC(=O)O)CC[C@]3(C)C(=CC[C@@H]4[C@@]5(C)CC[C@H](OC(=O)CCC(=O)O)C(C)(C)[C@@H]5CC[C@]43C)[C@@H]2C1` the value was 17.7 µM; for `CC1(C)CC[C@]2(C(=O)NCCCC(=O)NCC(=O)O)CC[C@]3(C)C(=CC[C@@H]4[C@@]5(C)CC[C@H](OC(=O)CCCC(=O)O)C(C)(C)[C@@H]5CC[C@]43C)[C@@H]2C1`, greater than 50 µM. For `CCCC(=O)O[C@H]1CC[C@]2(C)[C@H]3CC=C4[C@@H]5CC(C)(C)CC[C@]5(C(=O)NCCCC(=O)NCC(=O)O)CC[C@@]4(C)[C@]3(C)CC[C@H]2C1(C)C` the value was greater than 50 µM. Turning to `C[C@H](NC(=O)CCCCCCCCCCNC(=O)[C@]12CCC(C)(C)C[C@H]1C1=CC[C@@H]3[C@@]4(C)CC[C@H](OC(=O)c5ccccc5)C(C)(C)[C@@H]4CC[C@@]3(C)[C@]1(C)CC2)C(=O)O`, the half-maximal inhibitory concentration (IC50) was greater than 50 µM.

With `CC(C)[C@H](NC(=O)CCCNC(=O)[C@]12CCC(C)(C)C[C@H]1C1=CC[C@@H]3[C@@]4(C)CC[C@H](OC(=O)CC(C)(C)CC(=O)O)C(C)(C)[C@@H]4CC[C@@]3(C)[C@]1(C)CC2)C(=O)O`, the IC50 is 46.3 µM. To `CCCCCC(=O)O[C@H]1CC[C@]2(C)[C@H]3CC=C4[C@@H]5CC(C)(C)CC[C@]5(C(=O)NCCCCCCCCCCC(=O)N[C@H](C(=O)O)C(C)C)CC[C@@]4(C)[C@]3(C)CC[C@H]2C1(C)C` belongs greater than 50 µM.

As for `C[C@H](NC(=O)CCCCCNC(=O)[C@]12CCC(C)(C)C[C@H]1C1=CC[C@@H]3[C@@]4(C)CC[C@H](OC(=O)CCCC(=O)O)C(C)(C)[C@@H]4CC[C@@]3(C)[C@]1(C)CC2)C(=O)O`, the concentration for half-maximal inhibition (IC50) came out at 38.8 µM. For `CC(C)(CC(=O)O)CC(=O)O[C@H]1CC[C@]2(C)[C@H]3CC=C4[C@@H]5CC(C)(C)CC[C@]5(C(=O)NCCCCCC(=O)NCC(=O)O)CC[C@@]4(C)[C@]3(C)CC[C@H]2C1(C)C` the value was 38.8 µM; for `CCC(=O)O[C@H]1CC[C@]2(C)[C@H]3CC=C4[C@@H]5CC(C)(C)CC[C@]5(C(=O)NCCCCCC(=O)NCC(=O)O)CC[C@@]4(C)[C@]3(C)CC[C@H]2C1(C)C`, greater than 50 µM; for `CC(C)(CC(=O)O)CC(=O)O[C@H]1CC[C@]2(C)[C@H]3CC=C4[C@@H]5CC(C)(C)CC[C@]5(C(=O)NCCCCCCCCCCC(=O)O)CC[C@@]4(C)[C@]3(C)CC[C@H]2C1(C)C`, greater than 50 µM. To `CCCCCC(=O)O[C@H]1CC[C@]2(C)[C@H]3CC=C4[C@@H]5CC(C)(C)CC[C@]5(C(=O)NCCCC(=O)N[C@H](C(=O)O)C(C)C)CC[C@@]4(C)[C@]3(C)CC[C@H]2C1(C)C` belongs greater than 50 µM. `CC1(C)CC[C@]2(C(=O)NCCCCCCCCCCC(=O)O)CC[C@]3(C)C(=CC[C@@H]4[C@@]5(C)CC[C@H](OC(=O)CCCC(=O)O)C(C)(C)[C@@H]5CC[C@]43C)[C@@H]2C1` registered an IC50 greater than 50 µM. To `CC(C)[C@H](NC(=O)CCCCCNC(=O)[C@]12CCC(C)(C)C[C@H]1C1=CC[C@@H]3[C@@]4(C)CC[C@H](OC(=O)CCCC(=O)O)C(C)(C)[C@@H]4CC[C@@]3(C)[C@]1(C)CC2)C(=O)O` belongs 17.9 µM. To `CCCC(=O)O[C@H]1CC[C@]2(C)[C@H]3CC=C4[C@@H]5CC(C)(C)CC[C@]5(C(=O)NCCCCCCCCCCC(=O)NCC(=O)O)CC[C@@]4(C)[C@]3(C)CC[C@H]2C1(C)C` belongs greater than 50 µM; to `CCCC(=O)O[C@H]1CC[C@]2(C)[C@H]3CC=C4[C@@H]5CC(C)(C)CC[C@]5(C(=O)NCCCCCC(=O)N[C@H](C(=O)O)C(C)C)CC[C@@]4(C)[C@]3(C)CC[C@H]2C1(C)C`, greater than 50 µM.

The compound `CC(C)[C@H](NC(=O)CCCNC(=O)[C@]12CCC(C)(C)C[C@H]1C1=CC[C@@H]3[C@@]4(C)CC[C@H](OC(=O)CCC(=O)O)C(C)(C)[C@@H]4CC[C@@]3(C)[C@]1(C)CC2)C(=O)O` displayed an IC50 of 41.5 µM.

With `CC1(C)CC[C@]2(C(=O)NCCCCCC(=O)NCC(=O)O)CC[C@]3(C)C(=CC[C@@H]4[C@@]5(C)CC[C@H](OC(=O)c6ccccc6)C(C)(C)[C@@H]5CC[C@]43C)[C@@H]2C1`, the IC50 is greater than 50 µM.

In turn, `CCCCCC(=O)O[C@H]1CC[C@]2(C)[C@H]3CC=C4[C@@H]5CC(C)(C)CC[C@]5(C(=O)NCCCCCCCCCCC(=O)N[C@@H](C)C(=O)O)CC[C@@]4(C)[C@]3(C)CC[C@H]2C1(C)C` gave a concentration for half-maximal inhibition (IC50) greater than 50 µM. `CCC(=O)O[C@H]1CC[C@]2(C)[C@H]3CC=C4[C@@H]5CC(C)(C)CC[C@]5(C(=O)NCCCC(=O)NCC(=O)O)CC[C@@]4(C)[C@]3(C)CC[C@H]2C1(C)C` showed a 50% inhibitory concentration (IC50) greater than 50 µM.
